Measurements reported in patent publication US12018023B2 (NERVIANO MEDICAL SCIENCES S.R.L., priority 2018, dated 2024).

Experiments:
U87MG_IDH1R132H = assay: Cellular 2-HG production assay, U87-MG-IDH1 R132H; assay type: cell-based; conditions: inhibition of 2HG production, 72 hr incubation, LC-MS/MS
How it was run: (§1)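 Cells in E-MEM/10% FCS (G418 500 μg/mL for the transfected U87-MG line) at 500 per well got compound 24 h after seeding and were incubated 72 h at 37 °C. Medium 2-HG was measured by LC-MS/MS with 2-HG-d3 internal standard; IC50 came from sigmoidal fitting versus controls.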

[1] = biological target: T1, IDH1^R132H homodimer enzyme (Homo sapiens, UniProt O75874, R132H); assay: NADPH depletion assay, IDH1 R132H; assay type: biochemical
T1 construct: purchased not specified
T1 sequence (O75874 whole entry R132H): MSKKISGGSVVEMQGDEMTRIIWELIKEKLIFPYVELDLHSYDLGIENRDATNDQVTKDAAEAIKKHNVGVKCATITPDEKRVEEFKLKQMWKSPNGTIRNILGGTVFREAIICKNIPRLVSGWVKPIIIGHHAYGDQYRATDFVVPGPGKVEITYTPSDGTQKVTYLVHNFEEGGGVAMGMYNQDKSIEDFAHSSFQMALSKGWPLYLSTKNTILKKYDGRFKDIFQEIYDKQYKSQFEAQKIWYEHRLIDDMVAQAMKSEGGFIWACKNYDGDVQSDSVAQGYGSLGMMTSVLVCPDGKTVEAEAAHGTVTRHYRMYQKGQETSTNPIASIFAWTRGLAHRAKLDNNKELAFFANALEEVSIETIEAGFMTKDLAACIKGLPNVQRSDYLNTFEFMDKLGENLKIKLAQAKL
How it was run: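 IDH1 R132H enzyme (8 nM as diluted) in Tris-HCl pH 7.6 with 10 mM MgCl2, 0.001% Triton X-100 and 4 mM β-mercaptoethanol is preincubated 15 min at RT with compound. Substrate mix (12 uM NADPH, 3.4 mM α-ketoglutarate) is added for 60 min; remaining NAD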

IDH1WT enzyme = biological target: T2, IDH1WT enzyme (Homo sapiens, UniProt O75874); assay: Enzymatic assay for IDH1 wild-type (NADPH forming assay); assay type: biochemical
T2 construct: purchased not specified
T2 sequence (O75874 whole entry): as the sequence (O75874 whole entry R132H) above, with H132R counted along it
Protocol: IDH1WT enzymatic activity converting isocitric acid to alpha-ketoglutarate is measured using a NADPH forming assay. In the assay the forming cofactor is measured in continuous with the addition of a catalytic excess of diaphorase and resazurin, to generate a fluorescent signal in proportion to the amount of NADPH forming.
Compounds were preincubated with the enzyme, then the reaction was started by the addition of NADP^+, isocitrate, diaphorase and a corresponding substrate, resazurin. Diaphorase reduces resazurin to the highly fluorescent resorufin with the concomitant oxidation of NADPH to NADP. Specifically, 0.2 uL of test compound, previously serially diluted 1 to 3, 10 experimental points from 1 mM in DMSO, was added to 0.016 nM IDH1WT enzyme in 10 μL of Assay Buffer (150 mM NaCl, 50 mM Tris-HCl pH 7.6, 10 mM MgCl2, 0.001% Triton X-100, 4 mM β-mercaptoethanol); the mixture is incubated for 15 minutes at room temperature. The reaction is started with the addition of 10 μL of Substrate Mix (400 μM NADP^+, 40 μM iso-citrate, 5 ugr/mL Diaphorase and 7 μM resazurin in Assay Buffer), the mixture is incubated at room temperature and the reaction is reading on a ViewLux as platereader at Ex544/Em590 in continuous.

IDH1^R132C = biological target: T3, IDH1^R132C (Homo sapiens, UniProt O75874, R132C); assay: NADPH depletion assay, IDH1 R132C; assay type: biochemical
T3 construct: purchased not specified
T3 sequence (O75874 whole entry R132C): as the sequence (O75874 whole entry R132H) above, with H132C counted along it
How it was run: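 IDH1 R132C (2 nM) preincubated 15 min at RT with compound in Tris-HCl pH 7.6/MgCl2 buffer, then 60 min RT with NADPH and 0.14 mM alpha-ketoglutarate. Remaining NADPH read by diaphorase/resazurin fluorescence (Ex544/Em590).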

HT-1080 (IDH1^R132C) = assay: Cellular 2-HG production assay, HT-1080; assay type: cell-based; conditions: Homo sapiens, HT-1080, 72 h, inhibition of 2HG production, 72 hr incubation, LC-MS/MS; read-out: HT1080 2-HG IC50
How it was run: as §1

IDH2^R172K = biological target: T4, IDH2^R172K (Homo sapiens, UniProt P48735, R172K); assay: NADPH depletion assay, IDH2 R172K; assay type: biochemical
T4 construct: purchased not specified
T4 sequence (P48735 40-452 R172K): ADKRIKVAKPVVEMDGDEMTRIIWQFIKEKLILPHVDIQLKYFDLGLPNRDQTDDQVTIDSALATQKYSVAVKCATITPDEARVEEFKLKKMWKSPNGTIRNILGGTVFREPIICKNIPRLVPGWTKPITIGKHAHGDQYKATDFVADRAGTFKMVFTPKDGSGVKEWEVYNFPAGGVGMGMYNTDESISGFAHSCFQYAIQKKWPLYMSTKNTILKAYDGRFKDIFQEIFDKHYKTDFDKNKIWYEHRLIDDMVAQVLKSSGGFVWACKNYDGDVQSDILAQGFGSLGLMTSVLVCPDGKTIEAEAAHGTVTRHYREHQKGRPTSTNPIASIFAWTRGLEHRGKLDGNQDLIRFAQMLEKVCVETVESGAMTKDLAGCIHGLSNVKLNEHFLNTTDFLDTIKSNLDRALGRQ
How it was run: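 IDH2 R172K (16 nM) was preincubated 15 min at RT with compound (1:3 series from 1 mM in DMSO) in Tris pH 7.6/NaCl/MgCl2/Triton/β-mercaptoethanol. The reaction ran 60 min at RT with 0.55 mM alpha-ketoglutarate and NADPH (12 μM in the substrate mix). Remaining NADPH was read with diaphorase/resazurin fluorescence at Ex544/Em590.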

C[C@H](Nc1ncc2ccc(=O)n(CC(C)(C)C)c2n1)c1ccc(CN2CCC(F)(F)CC2)c(F)c1 [cpd 94, 2-{[(1S)-1-{4-[(4,4-difluoropiperidin-1-yl)methyl]-3-fluorophenyl}ethyl]amino}-8-(2,2-dimethylpropyl) pyrido[2,3-d]pyrimidin-7(8H)-one]
IC50 (U87MG_IDH1R132H): 370 nM | IC50 [1]: 71 nM | IC50 (IDH1WT enzyme): 1330 nM | IC50 (IDH1^R132C): 30 nM | IC50 (HT-1080 (IDH1^R132C)): 203 nM | IC50 (IDH2^R172K): 5570 nM

C=CC(=O)N1CCN(C(CC2CC2)c2ccc([C@H](C)Nc3ncc4ccc(=O)n(CC)c4n3)cc2)CC1 (stereo partly drawn) [cpd 219, 2-{[(1S)-1-{4-[1-(4-acryloylpiperazin-1-yl)-2-cyclopropylethyl]phenyl}ethyl]amino}-8-ethylpyrido[2,3-d]pyrimidin-7(8H)-one]
IC50 (U87MG_IDH1R132H): 0.4 nM | IC50 [1]: 1 nM | IC50 (IDH1WT enzyme): 52 nM | IC50 (IDH1^R132C): 1 nM | IC50 (HT-1080 (IDH1^R132C)): 0.4 nM | IC50 (IDH2^R172K): 6 nM

C=CC(=O)N1CCN(C(CC)c2ccc([C@H](C)Nc3ncc4ccc(=O)n(CC)c4n3)cc2)CC1 (stereo partly drawn) [cpd 214, 2-{[(1S)-1-{4-[1-(4-acryloylpiperazin-1-yl)propyl]phenyl}ethyl]amino}-8-ethylpyrido[2,3-d]pyrimidin-7(8H)-one]
IC50 [1]: 4 nM | IC50 (IDH1WT enzyme): 64 nM | IC50 (IDH1^R132C): 2 nM | IC50 (HT-1080 (IDH1^R132C)): 2.1 nM | IC50 (IDH2^R172K): 15 nM

C=CC(=O)N1CCN(C(CC)c2ccc([C@H](C)Nc3ncc4ccc(=O)n(C(C)C)c4n3)cc2)CC1 (stereo partly drawn) [cpd 187, 2-{[(1S)-1-{4-[1-(4-acryloylpiperazin-1-yl)propyl]phenyl}ethyl]amino}-8-(propan-2-yl)pyrido[2,3-d]pyrimidin-7(8H)-one]
IC50 [1]: 2 nM | IC50 (IDH1WT enzyme): 541 nM | IC50 (IDH1^R132C): 2 nM | IC50 (HT-1080 (IDH1^R132C)): < 1 nM | IC50 (IDH2^R172K): 18 nM

C=CC(=O)N1CCN(Cc2ccc([C@H](C)Nc3ncc4ccc(=O)n(C(C)C)c4n3)cc2)CC1 [cpd 184, 2-{[(1S)-1-{4-[(4-acryloylpiperazin-1-yl)methyl]phenyl}ethyl]amino}-8-(propan-2-yl)pyrido[2,3-d]pyrimidin-7(8H)-one]
IC50 [1]: 126 nM | IC50 (IDH1WT enzyme): 2870 nM | IC50 (IDH1^R132C): 227 nM | IC50 (HT-1080 (IDH1^R132C)): 28 nM | IC50 (IDH2^R172K): 201 nM

C=CC(=O)N1CCN(Cc2ccc([C@H](C)Nc3ncc4ccc(=O)n(CC(C)(C)C)c4n3)cc2F)CC1 [cpd 141, 2-{[(1S)-1-{4-[(4-acryloylpiperazin-1-yl)methyl]-3-fluorophenyl}ethyl]amino}-8-(2,2-dimethylpropyl)pyrido[2,3-d] pyrimidin-7(8H)-one]
IC50 (U87MG_IDH1R132H): 24 nM | IC50 [1]: 38 nM | IC50 (IDH1WT enzyme): 1820 nM | IC50 (IDH1^R132C): 31 nM | IC50 (IDH2^R172K): 213 nM

C=CC(=O)N1CCN(C(CC)c2ccc(C3(Nc4ncc5ccc(=O)n(C(C)C)c5n4)CC3)cc2)CC1 (stereo not drawn) [cpd 247, 2-[(1-{4-[1-(4-acryloylpiperazin-1-yl)propyl]phenyl}cyclopropyl)amino]-8-(propan-2-yl)pyrido[2,3-d]pyrimidin-7(8H)-one]
IC50 [1]: 5 nM | IC50 (IDH1WT enzyme): 215 nM | IC50 (IDH1^R132C): 4 nM | IC50 (HT-1080 (IDH1^R132C)): 3 nM | IC50 (IDH2^R172K): 35 nM

C=CC(=O)N1CCC(Oc2ccc([C@H](C)Nc3ncc4ccc(=O)n(CC(C)(C)C)c4n3)cc2)CC1 [cpd 156, 2-{(S)-1-[4-(1-Acryloyl-piperidin-4-yloxy)-phenyl]-ethylamino}-8-(2,2-dimethyl-propyl)-8H-pyrido[2,3-d]pyrimidin-7-one]
IC50 (U87MG_IDH1R132H): 289 nM | IC50 [1]: 139 nM | IC50 (IDH1WT enzyme): 2540 nM | IC50 (IDH1^R132C): 91 nM | IC50 (IDH2^R172K): 476 nM

C=CC(=O)N1CCN([C@H](CC)c2ccc(C3(Nc4ncc5ccc(=O)n(C(C)C)c5n4)CC3)cc2)CC1 (single isomer, unassigned) [cpd 248]
IC50 [1]: 4 nM | IC50 (IDH1WT enzyme): 216 nM | IC50 (IDH1^R132C): 2 nM | IC50 (HT-1080 (IDH1^R132C)): 3.1 nM | IC50 (IDH2^R172K): 30 nM

C=CC(=O)N1CCN(c2ccc([C@H](C)Nc3ncc4ccc(=O)n([C@@H](C)C(C)C)c4n3)cc2)CC1 [cpd 175, 2-({(1S)-1-[4-(4-acryloylpiperazin-1-yl)phenyl]ethyl}amino)-8-[(2S)-3-methylbutan-2-yl]pyrido[2,3-d]pyrimidin-7(8H)-one]
IC50 (U87MG_IDH1R132H): 21 nM | IC50 [1]: 65 nM | IC50 (IDH1WT enzyme): 1170 nM | IC50 (IDH1^R132C): 66 nM | IC50 (IDH2^R172K): 442 nM

C=CC(=O)N1CCN(Cc2ccc([C@H](C)Nc3nc(N)c4ccc(=O)n(C(C)C)c4n3)cc2)CC1 [cpd 206, 2-{[(1S)-1-{4-[(4-acryloylpiperazin-1-yl)methyl]phenyl}ethyl]amino}-4-amino-8-(propan-2-yl)pyrido[2,3-d]pyrimidin-7(8H)-one]
IC50 [1]: 13 nM | IC50 (IDH1WT enzyme): 221 nM | IC50 (IDH1^R132C): 15 nM | IC50 (HT-1080 (IDH1^R132C)): 10.1 nM | IC50 (IDH2^R172K): 98 nM

C=CC(=O)N1CCC(C#N)(c2ccc([C@H](C)Nc3ncc4ccc(=O)n(C(C)C)c4n3)cc2)CC1 [cpd 241, 1-acryloyl-4-{4-[(1S)-1-{[7-oxo-8-(propan-2-yl)-7,8-dihydropyrido[2,3-d]pyrimidin-2-yl]amino}ethyl]phenyl}piperidine-4-carbonitrile]
IC50 [1]: 272 nM | IC50 (IDH1WT enzyme): 117 nM | IC50 (IDH1^R132C): 196 nM | IC50 (HT-1080 (IDH1^R132C)): 64.7 nM | IC50 (IDH2^R172K): 146 nM

C=CC(=O)N1CCN([C@H](CC2CC2)c2ccc([C@H](C)Nc3ncc4ccc(=O)n(C(C)C)c4n3)cc2)CC1 [cpd 231, 2-{[(1S)-1-{4-[(1R)-1-(4-acryloylpiperazin-1-yl)-2-cyclopropylethyl]phenyl}ethyl]amino}-8-(propan-2-yl) pyrido [2,3-d]pyrimidin-7(8H)-one]
IC50 [1]: 1 nM | IC50 (IDH1WT enzyme): 122 nM | IC50 (IDH1^R132C): 1 nM | IC50 (HT-1080 (IDH1^R132C)): 0.3 nM | IC50 (IDH2^R172K): 14 nM

C=CC(=O)N1CCC(Oc2ccc([C@H](C)Nc3ncc4ccc(=O)n([C@@H](C)C(C)C)c4n3)cc2)CC1 [cpd 159, 2-{(S)-1-[4-(1-Acryloyl-piperidin-4-yloxy)-phenyl]-ethylamino}-8-((S)-1,2-dimethyl-propyl)-8H-pyrido[2,3-d]pyrimidin-7-one]
IC50 (U87MG_IDH1R132H): 81 nM | IC50 [1]: 77 nM | IC50 (IDH1WT enzyme): 1730 nM | IC50 (IDH1^R132C): 37 nM | IC50 (IDH2^R172K): 510 nM

C=CC(=O)N1CCN(C(CC2CC2)c2ccc(C3(Nc4ncc5ccc(=O)n(C(C)C)c5n4)CC3)cc2)CC1 (stereo not drawn) [cpd 244, 2-[(1-{4-[1-(4-acryloylpiperazin-1-yl)-2-cyclopropylethyl]phenyl}cyclopropyl)amino]-8-(propan-2-yl)pyrido[2,3-d]pyrimidin-7(8H)-one]
IC50 [1]: 2 nM | IC50 (IDH1WT enzyme): 220 nM | IC50 (IDH1^R132C): 3 nM | IC50 (HT-1080 (IDH1^R132C)): 1.6 nM | IC50 (IDH2^R172K): 21 nM

C=CC(=O)N1CCN([C@H](CC2CC2)c2ccc(C3(Nc4ncc5ccc(=O)n(C(C)C)c5n4)CC3)cc2)CC1 (single isomer, unassigned) [cpd 245]
IC50 [1]: 2 nM | IC50 (IDH1WT enzyme): 224 nM | IC50 (IDH1^R132C): 2 nM | IC50 (HT-1080 (IDH1^R132C)): 1 nM | IC50 (IDH2^R172K): 20 nM

C=CC(=O)N1CCN(C(=O)c2ccc([C@H](C)Nc3ncc4ccc(=O)n([C@@H](C)C(C)C)c4n3)cc2F)CC1 [cpd 191, 2-{[(1S)-1-{4-[(4-acryloylpiperazin-1-yl)carbonyl]-3-fluorophenyl}ethyl]amino}-8-[(2S)-3-methylbutan-2-yl]pyrido[2,3-d]pyrimidin-7(8H)-one]
IC50 [1]: 70 nM | IC50 (IDH1WT enzyme): 2990 nM | IC50 (IDH1^R132C): 116 nM | IC50 (HT-1080 (IDH1^R132C)): 40 nM | IC50 (IDH2^R172K): 902 nM
